In this test the target is gelatinase. Put plainly: MMP particle concentration fluorescence assay, gelatinase. The settings on record: in vitro; 15 min preincubation, 1-3 hours with substrate at room temperature, pH 7.5. It is filed as biochemical. The method, then:
Inhibitory activity is evaluated in one or more of the MMP enzymes (stromelysin, gelatinase, and collagenase) in vitro using particle concentration fluorescence assay. An inhibitor binds to MMP enzymes which prevents the degradation of a substrate by stromelysin, gelatinase, or collagenase. The substrate has attached to it a fluorescein and a biotin moiety. The intact substrate then binds to an avidin-coated particle via the biotin moiety. Once the particle is washed and dried, a fluorescent signal is generated since the fluorescent group is attached to the particle. Without an inhibitor present, the substrate is degraded by MMP enzymes and the fluorescein group is removed, therefore, no fluorescent signal can be detected. Testing compounds are dissolved in DMSO to the desired concentration, then the solutions are diluted to 1:5 with MMP buffer (50 mM Tris-HCl, pH 7.5; 150 mM NaCl; 0.02% NaN3). Serial two-fold dilutions of each compound are prepared. A concentrated, activated enzyme solution is transferred into each plate of the testing compounds, and the mixture is incubated at room temperature for 15 minutes. Thawed MMP substrate is then added into all plates, and the plates are incubated in the dark for 1-3 hours at room temperature. At this point, the substrate mixture is mixed with 0.1% avidin-coated polystyrene particles. After 15 minutes, the fluorescence values are measured following filtration and washing of the beads. Ki values are then calculated.

`COc1ccc(S(=O)(=O)CC(O)(CS(=O)(=O)c2ccc(-c3ccccc3)cc2)C(=O)NO)cc1` (racemic) [Example 1, N-hydroxy-2-hydroxy-2-[(4-methoxybenzenesulfonyl)methyl]-3-(4-phenylbenzenesulfonyl)-propionamide] gave a Ki of 1.9 nM.
Then `COc1ccc(S(=O)(=O)CC(O)(CS(=O)(=O)c2ccc(-c3ccccc3)cc2)C(=O)NO)cc1` (single isomer, unassigned) [1, Enantiomer A], with 8.5 nM; and `COc1ccc(S(=O)(=O)CC(O)(CS(=O)(=O)c2ccc(-c3ccccc3)cc2)C(=O)NO)cc1` (single isomer, unassigned) [1, Enantiomer B], with 0.34 nM.
Regarding `COc1ccc(S(=O)(=O)CC(O)(CS(=O)(=O)c2ccc(F)cc2)C(=O)NO)cc1` (stereo not drawn) [Example 2, N-hydroxy-2-hydroxy-2-[(4-methoxybenzenesulfonyl)methyl]-3-(4-fluorobenzenesulfonyl)-propionamide], the inhibition constant Ki is 31 nM.
Then `CCCCc1ccc(S(=O)(=O)CC(O)(CS(=O)(=O)c2ccc(OC)cc2)C(=O)NO)cc1` (stereo not drawn) [Example 3, N-hydroxy-2-hydroxy-2-[(4-methoxybenzenesulfonyl)methyl]-3-(4-n-butylbenzenesulfonyl)-propionamide], with 13 nM; and `COc1ccc(S(=O)(=O)CC(O)(CS(=O)(=O)c2ccc(OC)cc2)C(=O)NO)cc1` [Example 4, N-hydroxy-2-hydroxy-2-[(4-methoxybenzenesulfonyl)methyl]-3-(4-methoxybenzenesulfonyl)-propionamide], with 7.5 nM.
Then `COc1ccc(S(=O)(=O)CC(O)(CNC(=O)c2ccccc2)C(=O)NO)cc1` (stereo not drawn) [Example 5, N-hydroxy-2-hydroxy-2-[(4-methoxybenzenesulfonyl)methyl]-3-(N-benzenecarbonylamino)-propionamide], with 23 nM; and `COc1ccc(S(=O)(=O)CC(O)(CNC(=O)C2CCCC2)C(=O)NO)cc1` (stereo not drawn) [Example 6, N-hydroxy-2-hydroxy-2-[(4-methoxybenzenesulfonyl)methyl]-3-[N-(cyclopentylcarbonyl)amino]-propionamide], with 70 nM; and `COc1ccc(C(=O)NCC(O)(CS(=O)(=O)c2ccc(OC)cc2)C(=O)NO)cc1` (stereo not drawn) [Example 7, N-hydroxy-2-hydroxy-2-[(4-methoxybenzenesulfonyl)methyl]-3-(N-(4-methoxybenzenecarbonyl)amino)-propionamide], with 17 nM.

The values are drawn from patent US20030166687A1, “ALPHA-HYDROXY,-AMINO AND -FLUORO DERIVATIVES OF BETA-SULPHONYL HYDROXAMIC ACIDS AS MATRIX METALLOPROTEINASES INHIBITORS” (priority 2000, published 2003).
